From PubChem BioAssay (NCI) come the findings set out here.

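Grown in 96-well plates, cells were treated for 48 hours with each compound at five concentrations. Insufficient inhibition: endpoint recorded as highest concentration tested. GI50 = concentration required for 50% inhibition of growth. At the TGI there is no net growth.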

Test systems include BT-549 breast; CCRF-CEM leukemia; SK-OV-3 ovarian; U251 CNS; ACHN renal; IGROV1 ovarian; UO-31 renal; NCI-H23 lung.
Holding throughout (experiment): NCI tumour cell line growth inhibition, 48 h

On to `CC[C@H](Nc1nc(N)nc(C)c1C#N)c1nc2cccc(CN(C)c3ncc(C(=O)NO)cn3)c2c(=O)n1-c1ccccc1`, for which the GI50 in the assay with BT-549 breast was 2.26 µM; in the assay on CCRF-CEM leukemia, 0.228 µM; in the assay on SK-OV-3 ovarian, 0.969 µM; in the assay on U251 CNS, 0.663 µM; in the assay on ACHN renal, 1.26 µM; with IGROV1 ovarian, 0.569 µM. Moreover, the GI50 in the assay with UO-31 renal is 1 µM; with NCI-H23 lung it was 1.14 µM. Besides, the TGI in the assay on BT-549 breast is 12.5 µM; in the assay with CCRF-CEM leukemia, greater than 50 µM; in the assay with SK-OV-3 ovarian, 3.22 µM; in the assay on U251 CNS it was 2.03 µM; in the assay with ACHN renal, 3.79 µM; in the assay on IGROV1 ovarian, 2.28 µM. In addition, the values for the TGI in the assay on UO-31 renal and with NCI-H23 lung were 3.05 µM and 5.32 µM, respectively.
As to `C[C@]12CC[C@H]3[C@@H](CCC4=CC(=O)CC[C@@H]43)[C@@H]1CC[C@@H]2OC(=O)N(CCCl)N=O`, the GI50 is 11.2 µM in the assay on BT-549 breast; 1.45 µM in the assay with CCRF-CEM leukemia; 2.77 µM with SK-OV-3 ovarian; 0.346 µM in the assay with U251 CNS; 0.359 µM in the assay with ACHN renal; 0.172 µM in the assay on IGROV1 ovarian. Moreover, the GI50 was 0.837 µM in the assay on UO-31 renal and 5.1 µM in the assay with NCI-H23 lung. The TGI with BT-549 breast is 26 µM; with CCRF-CEM leukemia, greater than 35.4 µM; with SK-OV-3 ovarian, 30 µM; with U251 CNS it was 17.4 µM; in the assay with ACHN renal, greater than 37.7 µM; with IGROV1 ovarian it was 15.8 µM. In addition, the TGI was found to be 14.1 µM in the assay on UO-31 renal and 33.7 µM in the assay on NCI-H23 lung.
Regarding `N#CSc1ncnc2nc[nH]c12`, the GI50 was greater than 28.7 µM with BT-549 breast; 3.32 µM with CCRF-CEM leukemia; 2.42 µM in the assay on SK-OV-3 ovarian; 32.4 µM with U251 CNS; 9.1 µM in the assay with ACHN renal; 35.1 µM in the assay with IGROV1 ovarian. Further, the GI50 is 10.4 µM in the assay on UO-31 renal and 9.96 µM in the assay on NCI-H23 lung. For the same molecule, the TGI in the assay on BT-549 breast, in the assay with CCRF-CEM leukemia, with SK-OV-3 ovarian, in the assay with U251 CNS, in the assay with ACHN renal and with IGROV1 ovarian was greater than 100 µM each time. Moreover, the TGI with UO-31 renal and in the assay with NCI-H23 lung was greater than 100 µM in each case.
Turning to `O=C(O)[C@@H]1C2CC([C@@H]1C(=O)O)[C@H](N1C(=O)CCC1=O)[C@@H]2Br` (stereo partly specified), the TGI in the assay with BT-549 breast, in the assay on CCRF-CEM leukemia, in the assay with SK-OV-3 ovarian, in the assay with U251 CNS, with ACHN renal and in the assay on IGROV1 ovarian was greater than 100 µM in each case. Moreover, the TGI in the assay on UO-31 renal and with NCI-H23 lung was greater than 100 µM in each case.
As to `O=C1C(Cl)=C(N/N=c2/[nH][nH]/c(=N/NC3=C(Cl)C(=O)c4ccccc4C3=O)c3ccccc23)C(=O)c2ccccc21`, the GI50 is 13.5 µM in the assay on BT-549 breast; 10 µM with CCRF-CEM leukemia; 15.3 µM in the assay on SK-OV-3 ovarian; 15.4 µM in the assay with U251 CNS; 12.7 µM in the assay on ACHN renal; 17.7 µM in the assay with IGROV1 ovarian. Also, the GI50 is 12.3 µM with UO-31 renal and 17.3 µM in the assay with NCI-H23 lung. Further, the TGI in the assay with BT-549 breast was found to be 26.8 µM; in the assay with CCRF-CEM leukemia, 56.7 µM; in the assay on SK-OV-3 ovarian, 29.5 µM; in the assay with U251 CNS, 29.2 µM; in the assay on ACHN renal, 28.2 µM; with IGROV1 ovarian, 48.5 µM. The values for the TGI in the assay with UO-31 renal and in the assay on NCI-H23 lung were 25.9 µM and 36.9 µM, respectively.
Turning to `O=S(=O)(c1ccc(NC(=S)NCc2cccnc2)cc1)N1CCCCC1`, the GI50 with BT-549 breast is greater than 100 µM; with CCRF-CEM leukemia it was 0.823 µM; in the assay with SK-OV-3 ovarian, greater than 100 µM; in the assay on U251 CNS it was 1.82 µM; in the assay on ACHN renal, 29.3 µM; in the assay with IGROV1 ovarian it was 23.3 µM. The GI50 with UO-31 renal is 21.5 µM; in the assay with NCI-H23 lung it was 28.6 µM. Moreover, the TGI with BT-549 breast, in the assay with CCRF-CEM leukemia, in the assay on SK-OV-3 ovarian, with U251 CNS, in the assay with ACHN renal and in the assay on IGROV1 ovarian was greater than 100 µM throughout. Also, the TGI in the assay on UO-31 renal and in the assay with NCI-H23 lung was greater than 100 µM throughout.
Turning to `CCc1c(C)[nH]c(/C=C2\N=C(c3ccc[nH]3)C=C2OC)c1C`, the GI50 in the assay with BT-549 breast was 0.129 µM; with CCRF-CEM leukemia, less than 0.0257 µM; with SK-OV-3 ovarian it was 2.95 µM; in the assay on U251 CNS, 0.275 µM; in the assay with ACHN renal, 0.316 µM; with IGROV1 ovarian it was 0.274 µM. The results for the GI50 in the assay with UO-31 renal and with NCI-H23 lung were 0.176 µM and 1.1 µM, respectively. Also, the TGI in the assay with BT-549 breast is 3.87 µM; in the assay with CCRF-CEM leukemia, 2.11 µM; in the assay on SK-OV-3 ovarian, 13.5 µM; in the assay with U251 CNS it was 7.33 µM; in the assay on ACHN renal, 2.19 µM; in the assay on IGROV1 ovarian, 3.53 µM. Further, the figures for the TGI in the assay with UO-31 renal and with NCI-H23 lung were 0.591 µM and 11.3 µM, respectively.
As to `C=C(C)[C@@H]1CC[C@]2(C(=O)NCCCN)CC[C@]3(C)[C@H](CC[C@@H]4[C@@]5(C)CC[C@H](O)C(C)(C)[C@@H]5CC[C@]43C)[C@@H]12`, the GI50 in the assay on BT-549 breast was 23.8 µM; in the assay on CCRF-CEM leukemia, 22.1 µM; in the assay with SK-OV-3 ovarian it was 17.7 µM; in the assay on U251 CNS, 17.7 µM; with ACHN renal, 21.7 µM; with IGROV1 ovarian, 21.5 µM. Moreover, the figures for the GI50 in the assay with UO-31 renal and with NCI-H23 lung were 38.9 µM and 22.6 µM, respectively. Also, the TGI in the assay on BT-549 breast is 75.9 µM; with CCRF-CEM leukemia, greater than 100 µM; in the assay on SK-OV-3 ovarian it was 49.4 µM; in the assay with U251 CNS it was 49.4 µM; in the assay on ACHN renal, 59.9 µM; in the assay with IGROV1 ovarian, greater than 100 µM. Also, the figures for the TGI in the assay with UO-31 renal and in the assay with NCI-H23 lung were greater than 100 µM and 87.1 µM, respectively.
For `CCCN1C(=O)/C(=c2\sc3n(c2=O)C2C(NN=3)N(CC)C(=O)N2CC)c2ccccc21` (stereo unspecified), the GI50 was 1.66 µM in the assay with BT-549 breast; 0.423 µM with CCRF-CEM leukemia; 0.737 µM with SK-OV-3 ovarian; 0.485 µM in the assay on U251 CNS; 0.625 µM in the assay with ACHN renal; 0.876 µM in the assay with IGROV1 ovarian. For the same molecule, the GI50 was 0.744 µM with UO-31 renal and 0.792 µM in the assay with NCI-H23 lung. Besides, the TGI in the assay with BT-549 breast is 13.2 µM; in the assay with CCRF-CEM leukemia, greater than 100 µM; with SK-OV-3 ovarian, 14.9 µM; in the assay with U251 CNS it was 12.3 µM; with ACHN renal it was 17.1 µM; in the assay on IGROV1 ovarian, 14.1 µM. Also, the TGI with UO-31 renal is 17.6 µM; with NCI-H23 lung, 15.8 µM.
